Key:
[1] = system: Subjects Having Insomnia Disorder; assay: Example 2: Insomnia Severity Index Daytime Functioning (Items 4-7); format: in vivo, human; details: Day 31; Zolpidem ER 6.25 mg
Source text: (§1) As used herein, the term “Insomnia Severity Index”, abbreviated as “ISI”, is an index calculated using a 7-item, self-report questionnaire assessing the nature, severity, and impact of insomnia (see Bastien, C. H., et al. “Validation of the Insomnia Severity Index as an outcome measure for insomnia research.” Sleep Med. 2001; 2(4): 297-307). The questionnaire evaluates: (1) severity of sleep onset; (2) sleep maintenance; (3) early morning awakening problems; (4) sleep dissatisfaction; (5) interference caused by sleep difficulties with daytime functioning; (6) noticeability of sleep problems by others; and (7) distress caused by the sleep difficulties. A 5-point scale is used to rate each item (0=no problem to 4=very severe problem) yielding a total score from 0 to 28. Total ISI score (items (1)-(7)) and daytime functioning (items (4)-(7)) are analyzed separately.
(§2) On day 1 of the baseline period, subjects were admitted to the clinic and ISI, FSS, and EQ-5D-3L were administered. Blood and urine samples were collected for routine safety assessments, an ECG was performed, and vital signs and weight were assessed. The eC-SSRS was administered. Subjects who completed the baseline period and continued to meet the eligibility criteria were randomized and began the randomization phase.
(§3) On the evening of Day 30, subjects returned to the clinic. A pre-dose blood sample was collected and study drug was again administered within 5 minutes of the subject's mean habitual bedtime. A polysomnogram recording was initiated. The following morning (Day 31), postural stability and cognitive performance were assessed and a blood sample was obtained. The ISI, FSS, EQ-5D-3L and PGI-Insomnia were administered. Blood and urine samples were collected for routine safety assessment. An electrocardiogram was performed, and vital signs and weight were assessed. The eC-SSRS was then administered to the subject. At 1.5 hours after waketime, subjects rated their morning sleepiness level.

[2] = system: Subjects Having Insomnia Disorder; assay: Example 2: auditory awakening threshold; details: Zolpidem 6.25 mg
[3] = system: Subjects Having Insomnia Disorder; assay: Example 2: subjective sleep onset latency (sSOL), sleep diary; format: in vivo, human; details: 6.25 mg
Source text: As used herein, the term “subjective sleep onset latency”, abbreviated as “sSOL”, means the estimated number of minutes from the time that the subject attempted to sleep until sleep onset. In some embodiments, sSOL is derived from data entered in a subject's Sleep Diary.
(§4) In some embodiments, sleep diaries were used to assess sleep parameters reported by subjects (i.e., subjective assessments) including subjective sleep onset latency (sSOL), subjective sleep efficiency (sSE), subjective WASO (sWASO), and subjective total sleep time (sTST). Subjects were instructed to complete the Sleep Diary developed based on the consensus Sleep Diary as described in Carney et al., “The consensus sleep diary: standardizing prospective sleep self-monitoring,” Sleep 2012; 35(2):287-302. In some embodiments, the Sleep Diary was used to assess the subject's global perception of quality of sleep on the previous night with the following question: “How would you rate the quality of your sleep last night?” Subjects rated the quality of their sleep on a scale from 1 to 9, with 1 being extremely poor and 9 being extremely good. In some embodiments, the Sleep Diary was used to assess subjective ratings of morning sleepiness with the following question: “How alert/sleepy do you feel this morning?” Subjects rated their sleepiness/alertness level on a Likert scale from 1 to 9, with 1 being extremely sleepy and 9 being extremely alert.
sSOL—subjective sleep onset latency: estimated minutes from the time that the subject attempted to sleep until sleep onset.
(§5) The treatment period lasted for 31 days. Subjects were randomized in a double-blind manner and received placebo, a tablet containing 5 mg of lemborexant, a tablet containing 10 mg of lemborexant, or a tablet containing 6.25 mg of zolpidem ER.
(§6) Once home, the subject ingested study drug each night prior to bedtime and completed their sleep diary within 1 hour of waketime.

[4] = system: Subjects Having Insomnia Disorder; assay: Example 2: Insomnia Severity Index Total Score (Items 1-7); format: in vivo, human; details: Day 31; Zolpidem ER 6.25 mg
Source text: as §1, §2, §3

[5] = system: Subjects Having Insomnia Disorder; assay: Example 2: subjective sleep efficiency (sSE), sleep diary; format: in vivo, human; details: Zolpidem ER 6.25 mg
Source text: As used herein, the term “subjective sleep efficiency”, abbreviated as “sSE”, means the proportion of sTST per subjective time spent in bed, calculated as the interval from the time the subject reports attempting to sleep until the time the subject stopped trying to sleep for the night (operationalized as the time the subject got out of bed for the day), and time spent asleep derived from subjective time spent in bed minus sWASO. As used herein, an “improvement of sleep efficiency in Subjective Sleep Efficiency (sSE)” means an increase in sleep efficiency in Subjective Sleep Efficiency (sSE).
as §4
sSE—subjective sleep efficiency: proportion of sTST per subjective time spent in bed, calculated as the interval from the time the subject reports attempting to sleep until the time the subject stopped trying to sleep for the night (operationalized as the time the subject got out of bed for the day), and time spent asleep derived from subjective time in bed minus sWASO.
as §5, §6

[6] = system: Subjects Having Insomnia Disorder; assay: Example 2: subjective total sleep time (sTST), sleep diary; format: in vivo, human; details: Zolpidem ER 6.25 mg
Source text: As used herein, the term “subjective total sleep time”, abbreviated as “sTST”, means the derived minutes of sleep from sleep onset until the time the subject stopped trying to sleep for the night. In some embodiments, sTST is derived from data entered in a subject's Sleep Diary.
as §4
sTST—subjective total sleep time: derived minutes of sleep from sleep onset until the time the subject stopped trying to sleep for the night.
as §5, §6

Q: With Cc1ccc(-c2nc3ccc(C)cn3c2CC(=O)N(C)C)cc1 [Zolpidem ER, zolpidem, reference compound] as the compound, how does the “Insomnia Severity Daytime Functioning (Items 4-7), Change from Study Baseline, Mean (SD)” value [1] read?
A: −5.24 (3.764)

Q: And the “Insomnia Severity Daytime Functioning (Items 4-7), Change from Study Baseline, Median” value [1]?
A: −5.00

Q: What about the “Insomnia Severity Daytime Functioning (Items 4-7), Mean (SD)” value [1] of the same compound?
A: 5.87 (3.417)

Q: What about the “Insomnia Severity Daytime Functioning (Items 4-7), Median” value [1] of the same compound?
A: 6.00

Q: And the “Auditory Awakening Threshold, LSM - Difference vs. Placebo” value [2]?
A: 7.2

Q: And the “Auditory Awakening Threshold, Mean (SD)” value [2]?
A: 58.4

Q: What about the “Auditory Awakening Threshold, Median” value [2] of the same compound?
A: 55.0

Q: What about the “sSOL Change from Study Baseline, Mean (SD)” value ([3]; First 7 Nights of Treatment) of the same compound?
A: −16.23 (29.531) minutes

Q: And the “sSOL Change from Study Baseline, Median” value ([3]; First 7 Nights of Treatment)?
A: -10.00 min

Q: And the “sSOL, Mean (SD)” value ([3]; First 7 Nights of Treatment)?
A: 44.61 (27.566) minutes

Q: What about the “sSOL, Median” value ([3]; First 7 Nights of Treatment) of the same compound?
A: 34.29 min

Q: And the “sSOL Change from Study Baseline, Mean (SD)” value ([3]; Last 7 Nights of Treatment)?
A: −17.04 (30.683) minutes

Q: What about the “sSOL Change from Study Baseline, Median” value ([3]; Last 7 Nights of Treatment) of the same compound?
A: -10.71 min

Q: What about the “sSOL, Mean (SD)” value ([3]; Last 7 Nights of Treatment) of the same compound?
A: 43.64 (30.649) minutes

Q: And the “sSOL, Median” value ([3]; Last 7 Nights of Treatment)?
A: 37.50 min

Q: What about the “sSOL, Mean (SD)” value ([3]; Study Baseline) of the same compound?
A: 60.54 (36.350) minutes

Q: What about the “sSOL, Median” value ([3]; Study Baseline) of the same compound?
A: 53.21 min

Q: What about the “Insomnia Severity Total Score (Items 1-7), Change from Study Baseline, Mean (SD)” value [4] of the same compound?
A: −8.26 (6.013)

Q: And the “Insomnia Severity Total Score (Items 1-7), Change from Study Baseline, Median” value [4]?
A: −8.00

Q: And the “Insomnia Severity Total Score (Items 1-7), Mean (SD)” value [4]?
A: 10.98 (5.452)

Q: And the “Insomnia Severity Total Score (Items 1-7), Median” value [4]?
A: 11.00

Q: What about the “Subjective Sleep Efficiency, Change from Study Baseline, Mean (SD)” value ([5]; First 7 Nights of Treatment) of the same compound?
A: 11.96 (12.526)

Q: And the “Subjective Sleep Efficiency, Mean (SD)” value ([5]; First 7 Nights of Treatment)?
A: 66.45 (16.419)

Q: What about the “Subjective Sleep Efficiency, Model-adjusted change from baseline” value ([5]; First 7 Nights of Treatment) of the same compound?
A: 12.11

Q: And the “Subjective Sleep Efficiency, Change from Study Baseline, Mean (SD)” value ([5]; Last 7 Nights of Treatment)?
A: 14.83 (15.011)

Q: What about the “Subjective Sleep Efficiency, Mean (SD)” value ([5]; Last 7 Nights of Treatment) of the same compound?
A: 69.45 (16.925)

Q: What about the “Subjective Sleep Efficiency, Model-adjusted change from baseline” value ([5]; Last 7 Nights of Treatment) of the same compound?
A: 14.82

Q: And the “Subjective Total Sleep Time, Change from Study Baseline, Mean (SD)” value ([6]; First 7 Nights of Treatment)?
A: 56.99 (62.880)

Q: What about the “Subjective Total Sleep Time, Mean (SD)” value ([6]; First 7 Nights of Treatment) of the same compound?
A: 325.64 (81.845)

Q: And the “Subjective Total Sleep Time, Model-adjusted change from baseline” value ([6]; First 7 Nights of Treatment)?
A: 57.71

Q: What about the “Subjective Total Sleep Time, Change from Study Baseline, Mean (SD)” value ([6]; Last 7 Nights of Treatment) of the same compound?
A: 71.01 (76.574)

Q: What about the “Subjective Total Sleep Time, Mean (SD)” value ([6]; Last 7 Nights of Treatment) of the same compound?
A: 340.20 (83.582)

Q: What about the “Subjective Total Sleep Time, Model-adjusted change from baseline” value ([6]; Last 7 Nights of Treatment) of the same compound?
A: 71.04

— US20220305012A1, “L[…] TREATING SLEEP ISSUES” (EISAI R&D MANAGEMENT CO., LTD., priority 2019, published 2022)
